Experimental findings from patent US12129246B1, “Hydroquinazoline derivatives for the treatment of a disease or disorder” (Novartis AG, priority 2023, dated 2024) are described below.

Read-outs that look alike come from different tables or passages of the source.

One assay addresses T1, human NPR1 (Homo sapiens, UniProt P16066).
T1 construct: host or cells: CHO-K1
T1 sequence (P16066 33-1061): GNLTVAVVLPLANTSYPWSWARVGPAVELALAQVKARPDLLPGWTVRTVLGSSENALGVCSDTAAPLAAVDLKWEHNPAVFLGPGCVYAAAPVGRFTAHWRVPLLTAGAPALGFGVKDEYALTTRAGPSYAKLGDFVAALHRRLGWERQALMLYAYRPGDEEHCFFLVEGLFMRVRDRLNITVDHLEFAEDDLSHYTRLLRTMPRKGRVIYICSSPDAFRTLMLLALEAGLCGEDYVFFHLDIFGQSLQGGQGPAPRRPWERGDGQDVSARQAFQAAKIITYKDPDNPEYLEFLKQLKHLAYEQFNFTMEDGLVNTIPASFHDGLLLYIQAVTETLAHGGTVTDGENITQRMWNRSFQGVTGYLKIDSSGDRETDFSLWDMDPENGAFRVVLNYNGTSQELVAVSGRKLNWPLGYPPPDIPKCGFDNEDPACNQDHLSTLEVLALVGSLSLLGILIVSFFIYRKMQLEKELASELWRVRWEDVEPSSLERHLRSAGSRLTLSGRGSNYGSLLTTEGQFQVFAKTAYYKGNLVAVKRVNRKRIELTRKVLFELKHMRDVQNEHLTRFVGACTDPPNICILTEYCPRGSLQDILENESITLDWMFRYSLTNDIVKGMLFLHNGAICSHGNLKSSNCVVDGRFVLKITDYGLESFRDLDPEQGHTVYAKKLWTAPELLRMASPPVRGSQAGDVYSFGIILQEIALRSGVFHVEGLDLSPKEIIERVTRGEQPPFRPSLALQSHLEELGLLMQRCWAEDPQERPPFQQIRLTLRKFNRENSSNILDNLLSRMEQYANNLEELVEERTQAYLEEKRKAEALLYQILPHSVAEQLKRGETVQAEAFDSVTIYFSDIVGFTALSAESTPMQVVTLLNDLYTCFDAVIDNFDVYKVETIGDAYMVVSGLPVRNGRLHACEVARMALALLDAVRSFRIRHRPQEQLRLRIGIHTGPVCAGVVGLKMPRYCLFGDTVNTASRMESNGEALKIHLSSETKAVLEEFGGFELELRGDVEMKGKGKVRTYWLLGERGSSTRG
The experiment in a line: Cellular cGMP production assay, human NPR1 expressing CHO-K1 cells (CisBio HTRF). Format: cell-based. As to conditions: for AC50: cGMP production, 30 min at 37° C., 12-point dose-response from 30 μM; for Human NPR1 Amax (% of ANP): maximum cGMP production as percentage of the maximum cGMP produced with ANP. The gist of the method: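 Cells receive IBMX (1 mM) assay buffer plus test compound over twelve threefold dilutions starting at 30 μM, and cGMP accumulates for 30 min at 37 °C. Lysates are then incubated one hour at room temperature with d2-labelled cGMP and cryptate-labelled antibody before time-resolved fluorescence reading.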
On the technique in general: TR-FRET usually uses a lanthanide donor and a delayed reading to cut background.

A further assay has as its target monkey NPR1 (Macaca fascicularis, UniProt A0A7N9DBT9). Kind of assay: Cellular cGMP production assay, monkey NPR1 expressing CHO-K1 cells (CisBio HTRF). It counts as cell-based. As to conditions: for Monkey NPR1 Amax (% of ANP): maximum cGMP production as percentage of the maximum cGMP produced with ANP. On the procedure:
Cellular cGMP is a major second messenger that mediates cell activities and is synthesized by activated NPR1 triggered by binding of the natural ligand ANP. […] The assay was performed according to manufacturer's instructions with minor deviations. […] All compound stocks were diluted in PBS+0.1% BSA at 2-fold the final assay concentration. After addition of 10 μL/well of assay buffer (PBS+0.1% BSA+1 mM IBMX) and 10 μL/well of the compounds in different concentrations (12-point dose-response with 3-fold dilutions from a top concentration of 30 μM), the plate was incubated for 30 min at 37° C. to allow for cGMP production. In parallel, a standard curve using a calibrator (contained in the kit) was generated. The cells were lysed and a mix of cGMP-d2 and anti-cGMP-cryptate was added and incubated for 1 h at room temperature. The readout was performed using an Envision plate reader (PerkinElmer) with an excitation wavelength of 317 nm and an emission wavelength of 665 nm. cGMP concentration (Delta F [° %]) was calculated according to the following formulae: […]

The mark [1] stands for this setting: cGMP production, monkey NPR1 CHO-K1 cells, 30 min at 37° C., 12-point dose-response from 30 μM, read-out: Monkey NPR1 AC50.

Chain of monkey NPR1 (A0A7N9DBT9 entry or part of it): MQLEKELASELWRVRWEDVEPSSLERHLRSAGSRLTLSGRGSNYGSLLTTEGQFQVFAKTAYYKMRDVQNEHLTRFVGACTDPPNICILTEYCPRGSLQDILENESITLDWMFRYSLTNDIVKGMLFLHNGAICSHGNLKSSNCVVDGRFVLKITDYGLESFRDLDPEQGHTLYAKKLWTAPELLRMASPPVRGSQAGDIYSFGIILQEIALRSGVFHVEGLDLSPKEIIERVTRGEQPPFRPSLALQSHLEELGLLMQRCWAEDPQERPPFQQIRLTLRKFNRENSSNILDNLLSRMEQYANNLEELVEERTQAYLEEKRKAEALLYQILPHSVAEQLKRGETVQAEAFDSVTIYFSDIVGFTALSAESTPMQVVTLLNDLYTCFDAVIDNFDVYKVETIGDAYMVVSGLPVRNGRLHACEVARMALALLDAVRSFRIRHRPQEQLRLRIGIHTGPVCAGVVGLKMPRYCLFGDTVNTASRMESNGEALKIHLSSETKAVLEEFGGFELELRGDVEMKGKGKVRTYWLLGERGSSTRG

In general, AC50 refers to the concentration at which the activity in the assay is half-maximal. For `CC[C@H]([C@H]1CC[C@H](C(=O)O)CC1)N(C)c1nc2c(c(N[C@@H](CN3C4CCCC3CC4)c3cnn(C)c3C)n1)C[C@H](c1cccc(F)c1)CC2` [Compound 16, (1R,4r)-4-((1R)-1-(((6R)-4-(((1R)-2-(8-azabicyclo[3.2.1]octan-8-yl)-1-(1,5-dimethyl-1H-pyrazol-4-yl)ethyl)amino)-6-(3-fluorophenyl)-5,6,7,8-tetrahydroquinazolin-2-yl)(methyl)amino)propyl)cyclohexane-1-carboxylic acid], on human NPR1, the AC50 amounted to 103 nM and the “Human NPR1 Amax (% of ANP)” value was 100.021 % of ANP. At monkey NPR1, the concentration at half-maximal activity (AC50) was 47 nM. Moreover, on monkey NPR1 (monkey NPR1 CHO-K1 cells), the “Monkey NPR1 Amax (% of ANP)” value was 98.785 % of ANP.
For `CC[C@H]([C@H]1CC[C@H](C(=O)O)CC1)N(C)c1nc2c(c(N[C@@H](CN3C4CCCC3CC4)c3cnn(C)c3)n1)CN(c1ccc(F)cc1)CC2` [Compound 80, (1R,4r)-4-((1R)-1-((4-(((1R)-2-(8-azabicyclo[3.2.1]octan-8-yl)-1-(1-methyl-1H-pyrazol-4-yl)ethyl)amino)-6-(4-fluorophenyl)-5,6,7,8-tetrahydropyrido[4,3-d]pyrimidin-2-yl)(methyl)amino)propyl)cyclohexane-1-carboxylic acid] the same measures were 267 nM, 94.876 % of ANP, 137 nM and 102.546 % of ANP.
Turning to `CC[C@H]([C@H]1CC[C@H](C(=O)O)CC1)N(C)c1nc2c(c(N[C@@H](CN3CCC[C@H](OC)C3)c3cnn(C)c3)n1)C[C@H](c1ccccc1)CC2` [Compound 134, (1R,4r)-4-((R)-1-(((R)-4-(((R)-2-((S)-3-methoxypiperidin-1-yl)-1-(1-methyl-1H-pyrazol-4-yl)ethyl)amino)-6-phenyl-5,6,7,8-tetrahydroquinazolin-2-yl)(methyl)amino)propyl)cyclohexane-1-carboxylic acid], at human NPR1, the half-maximal activity concentration (AC50) came to 792 nM and the “Human NPR1 Amax (% of ANP)” value is 101.936 % of ANP. Besides, the AC50 on monkey NPR1 (setting [1]) is 684 nM. For the same compound, the “Monkey NPR1 Amax (% of ANP)” value on monkey NPR1 (monkey NPR1 CHO-K1 cells) is recorded as 96.371 % of ANP.
For `CC[C@H]([C@H]1CC[C@H](C(=O)O)CC1)N(C)c1nc2c(c(N[C@@H](CN3C4CC5CC(C4)CC3C5)c3cnn(C)c3)n1)C[C@H](c1ccccc1)CC2` [Compound 98, (1R,4r)-4-((R)-1-(((R)-4-(((R)-2-((1R,3R,5R,7R)-2-azaadamantan-2-yl)-1-(1-methyl-1H-pyrazol-4-yl)ethyl)amino)-6-phenyl-5,6,7,8-tetrahydroquinazolin-2-yl)(methyl)amino)propyl)cyclohexane-1-carboxylic acid] the same measures were 346 nM, 100.756 % of ANP, 179 nM and 105.533 % of ANP.
As for `CC[C@H]([C@H]1CC[C@H](C(=O)O)CC1)N(C)c1nc2c(c(N[C@@H](CN3C4CCCC3CCC4)c3cnn(C)c3)n1)C[C@H](c1cccc(F)c1)CC2` [Compound 29, (1R,4r)-4-((R)-1-(((R)-4-(((R)-2-((1S,5S)-9-azabicyclo[3.3.1]nonan-9-yl)-1-(1-methyl-1H-pyrazol-4-yl)ethyl)amino)-6-(3-fluorophenyl)-5,6,7,8-tetrahydroquinazolin-2-yl)(methyl)amino)propyl)cyclohexane-1-carboxylic acid], the AC50 is 140 nM at human NPR1 and 137 nM on monkey NPR1. Moreover, the “Human NPR1 Amax (% of ANP)” value on human NPR1 is 102.911 % of ANP. In addition, the “Monkey NPR1 Amax (% of ANP)” value on monkey NPR1 (monkey NPR1 CHO-K1 cells) is listed as 128.079 % of ANP.
For `CC[C@H]([C@H]1CC[C@H](C(=O)O)CC1)N(C)c1nc2c(c(N[C@@H](CN3C4CCCC3CC4)c3cnn(C)c3)n1)C[C@](C)(c1ccccc1)CC2` [Compound 34, (1R,4r)-4-((1R)-1-(((6R)-4-(((1R)-2-(8-azabicyclo[3.2.1]octan-8-yl)-1-(1-methyl-1H-pyrazol-4-yl)ethyl)amino)-6-methyl-6-phenyl-5,6,7,8-tetrahydroquinazolin-2-yl)(methyl)amino)propyl)cyclohexane-1-carboxylic acid] the same measures were 146 nM, 91 nM, 95.375 % of ANP and 100.553 % of ANP.
For `CC[C@@H](Nc1nc2c(c(N[C@@H](CN3CCC[C@H](C)C3)c3cnn(C)c3)n1)C[C@](C)(c1cccc(F)c1)CC2)[C@H]1CC[C@H](C(=O)O)CC1` [Compound 2, (1R,4r)-4-((R)-1-(((R)-6-(3-fluorophenyl)-6-methyl-4-(((R)-1-(1-methyl-1H-pyrazol-4-yl)-2-((S)-3-methylpiperidin-1-yl)ethyl)amino)-5,6,7,8-tetrahydroquinazolin-2-yl)amino)propyl)cyclohexane-1-carboxylic acid], the values for the half-maximal activity concentration (AC50) at human NPR1 and on monkey NPR1 (setting [1]) were 42 nM and 44 nM, respectively. Besides, the “Human NPR1 Amax (% of ANP)” value on human NPR1 is given as 96.935 % of ANP. Besides, at monkey NPR1 (monkey NPR1 CHO-K1 cells), the “Monkey NPR1 Amax (% of ANP)” value was 103.371 % of ANP.
As to `CC[C@@H](Nc1nc2c(c(N[C@@H](CN3CC4CCC3C4)c3ccccc3)n1)C[C@H](c1ccccc1)CC2)[C@H]1CC[C@H](C(=O)O)CC1` (stereo partly drawn) [Compound 160, (1R,4r)-4-((1R)-1-(((6R)-4-(((1R)-2-(2-azabicyclo[2.2.1]heptan-2-yl)-1-phenylethyl)amino)-6-phenyl-5,6,7,8-tetrahydroquinazolin-2-yl)amino)propyl)cyclohexane-1-carboxylic acid], at human NPR1, the AC50 was determined as 1620 nM and the “Human NPR1 Amax (% of ANP)” value is recorded as 94.868 % of ANP. Also, at monkey NPR1 (setting [1]), the half-maximal activity concentration (AC50) is 1430 nM. Further, on monkey NPR1 (monkey NPR1 CHO-K1 cells), the “Monkey NPR1 Amax (% of ANP)” value was 102.098 % of ANP.
On to `CC[C@H]([C@H]1CC[C@H](C(=O)O)CC1)N(C)c1nc2c(c(N[C@@H](CN3CCCC4(CCOC4)C3)c3cnn(CC)c3)n1)C[C@H](c1ccccc1)CC2` (stereo partly drawn) [Compound 162, (1R,4r)-4-((1R)-1-(((6R)-4-(((1R)-1-(1-ethyl-1H-pyrazol-4-yl)-2-(2-oxa-7-azaspiro[4.5]decan-7-yl)ethyl)amino)-6-phenyl-5,6,7,8-tetrahydroquinazolin-2-yl)(methyl)amino)propyl)cyclohexane-1-carboxylic acid], for which the AC50 at human NPR1 is 1700 nM; on monkey NPR1 (setting [1]), 1310 nM. Further, on human NPR1, the “Human NPR1 Amax (% of ANP)” value is recorded as 83.721 % of ANP. On monkey NPR1 (monkey NPR1 CHO-K1 cells), the “Monkey NPR1 Amax (% of ANP)” value is recorded as 89.971 % of ANP.
For `CC[C@H]([C@H]1CC[C@H](C(=O)O)CC1)N(C)c1nc2c(c(N[C@@H](CN3CCC[C@H](C)C3)c3ccc(=O)n(C)c3)n1)C[C@H](c1cccc(F)c1)CC2` [Compound 53, (1R,4r)-4-((R)-1-(((R)-6-(3-fluorophenyl)-4-(((R)-1-(1-methyl-6-oxo-1,6-dihydropyridin-3-yl)-2-((S)-3-methylpiperidin-1-yl)ethyl)amino)-5,6,7,8-tetrahydroquinazolin-2-yl)(methyl)amino)propyl)cyclohexane-1-carboxylic acid], on human NPR1, the activity was half-maximal at 190 nM (AC50) and the “Human NPR1 Amax (% of ANP)” value is on record as 101.185 % of ANP. Further, at monkey NPR1 (setting [1]), the AC50 amounted to 101 nM. The “Monkey NPR1 Amax (% of ANP)” value on monkey NPR1 (monkey NPR1 CHO-K1 cells) was 101.261 % of ANP.
